Assays:
[1] = test system: FHC; assay: Cytotoxicity against human FHC cells assessed as reduction in cell viability incubated for 48 hrs by MTT assay; format: cell-based
[2] = test system: HepG2; assay: Antiproliferative activity against human HepG2 cells assessed as reduction in cell viability incubated for 48 hrs by MTT assay; format: functional, cell-based; conditions: HepG2, 48 h
[3] = test system: HCT-116; assay: Antiproliferative activity against human HCT116 cells assessed as reduction in cell viability incubated for 48 hrs by MTT assay; format: functional, cell-based; conditions: HCT-116, 48 h
[4] = test system: MCF7; assay: Antiproliferative activity against human MCF7 cells assessed as reduction in cell viability incubated for 48 hrs by MTT assay; format: functional, cell-based; conditions: MCF7, 48 h
[5] = Selectivity index, ratio of IC50 for human FHC cells to IC50 for human HCT116 cells; format: toxicity; conditions: FHC cells and HCT116 cells, read-out: Ratio IC50
[6] = test system: HCT-116; assay: Induction of apoptosis in human HCT116 cells assessed as increase in caspase 3 level by ELISA relative to control; format: functional
[7] = test system: HCT-116; assay: Induction of apoptosis in human HCT116 cells assessed as increase in caspase 8 level by ELISA relative to control; format: functional
[8] = test system: HCT-116; assay: Induction of apoptosis in human HCT116 cells assessed as increase in caspase 9 level by ELISA relative to control; format: functional
[9] = test system: HCT-116; assay: Induction of apoptosis in human HCT116 cells assessed as increase in cytochrome C by ELISA relative to control; format: functional
[10] = test system: HCT-116; assay: Induction of apoptosis in human HCT116 cells assessed as increase in Bax level by ELISA relative to control; format: functional
[11] = test system: HCT-116; assay: Induction of apoptosis in human HCT116 cells assessed as decrease in Bcl 2 level by ELISA relative to control (reference value: 10.1 +/- 0.73 ng/ml); format: functional
[12] = test system: HCT-116; assay: Induction of apoptosis in human HCT116 cells assessed as early apoptotic cells incubated for 24 hrs by annexin V FITC and propidium iodide staining based flow cytometry (reference value: 0.9 %); format: functional
[13] = test system: HCT-116; assay: Induction of apoptosis in human HCT116 cells assessed as late apoptotic cells incubated for 24 hrs by annexin V FITC and propidium iodide staining based flow cytometry (reference value: 0.39 %); format: functional
[14] = test system: HCT-116; assay: Induction of apoptosis in human HCT116 cells assessed as necrotic cells incubated for 24 hrs by annexin V FITC and propidium iodide staining based flow cytometry (reference value: 0.46 %); format: functional
[15] = test system: HCT-116; assay: Induction of cell cycle arrest in human HCT116 cells assessed as accumulation in preG phase incubated for 24 hrs by annexin V FITC and propidium iodide staining based flow cytometry (reference value: 1.75 %); format: functional
[16] = test system: HCT-116; assay: Induction of cell cycle arrest in human HCT116 cells assessed as accumulation in G0/G1 phase incubated for 24 hrs by annexin V FITC and propidium iodide staining based flow cytometry (reference value: 46.72 %); format: functional
[17] = test system: HCT-116; assay: Induction of cell cycle arrest in human HCT116 cells assessed as accumulation in G2/M phase incubated for 24 hrs by annexin V FITC and propidium iodide staining based flow cytometry (reference value: 18.29 %); format: functional
[18] = test system: HCT-116; assay: Induction of cell cycle arrest in human HCT116 cells assessed as accumulation in S phase incubated for 24 hrs by annexin V FITC and propidium iodide staining based flow cytometry (reference value: 34.99 %); format: functional

Row | Compound | IC50 [2] [µM] | IC50 [3] [µM] | IC50 [4] [µM] | also measured
1 | CCOP(=O)(OCC)C(NNC(=O)CSc1nnc(-c2ccncc2)o1)c1ccccc1Cl (stereo unspecified) | 19.2 | 9.2 | 62.9 | IC50 [1]: 35.9 µM; selectivity ratio [5]: 3.9; fold change (FC) [6]: 7.78; fold change (FC) [7]: 6.4; fold change (FC) [8]: 11.61; fold change (FC) [9]: 6.72; fold change (FC) [10]: 6.18; Activity [11]: 5.088 ng/mL; Activity [12]: 7.26%; Activity [13]: 15.69%; Activity [14]: 3.28%; Activity [15]: 26.23%; Activity [16]: 24.91%; Activity [17]: 46.33%; Activity [18]: 28.76%
2 | CCOP(=O)(OCC)C(NNC(=O)CSc1nnc(-c2ccncc2)o1)c1ccc(C#N)cc1 (stereo unspecified) | 13.6 | 12.7 | 41.7 | 
3 | CCOP(=O)(OCC)C(NNC(=O)CSc1nnc(-c2ccncc2)o1)c1ccc2ccccc2c1 (stereo unspecified) | 25.8 | 9.5 | 57.3 | IC50 [1]: 23.4 µM; selectivity ratio [5]: 2.46; fold change (FC) [6]: 5.99; fold change (FC) [7]: 3.64; fold change (FC) [8]: 8.85; fold change (FC) [9]: 5.69; fold change (FC) [10]: 5.78; Activity [11]: 5.945 ng/mL; Activity [12]: 4.59%; Activity [13]: 12.51%; Activity [14]: 2.14%; Activity [15]: 19.24%; Activity [16]: 30.56%; Activity [17]: 37.97%; Activity [18]: 31.47%
4 | CCOP(=O)(OCC)C(NNC(=O)CSc1nnc(-c2ccncc2)o1)c1ccc(O)cc1 (stereo unspecified) | 14.8 | 14.6 | 52.9 | 
5 | CCOP(=O)(OCC)C(NNC(=O)CSc1nnc(-c2ccncc2)o1)c1ccc(O)c(O)c1 (stereo unspecified) | 27.3 | 21.1 | 63.4 | 
6 | CCOP(=O)(OCC)C(NNC(=O)CSc1nnc(-c2ccncc2)o1)c1ccc(C)cc1 (stereo unspecified) | 19.5 | 17.6 | 86.3 | 
7 | CCOP(=O)(OCC)C(NNC(=O)CSc1nnc(-c2ccncc2)o1)c1cccs1 (stereo unspecified) | 13.9 | 17.1 | 47.8 | 
8 | CCOP(=O)(OCC)C(NNC(=O)CSc1nnc(-c2ccncc2)o1)c1cccc(OC)c1 (stereo unspecified) | 53.9 | 19.2 | 52.3 | 
9 | CCOP(=O)(OCC)C(NNC(=O)CSc1nnc(-c2ccncc2)o1)c1ccc([N+](=O)[O-])cc1 (stereo unspecified) | 18.1 | 15 | 58.8 | 
10 | CCOP(=O)(OCC)C(NNC(=O)CSc1nnc(-c2ccncc2)o1)c1cc(OC)ccc1OC (stereo unspecified) | 20.3 | 24.6 | 61.6 | 
11 | COc1cccc2c1C(=O)c1c(O)c3c(c(O)c1C2=O)C[C@@](O)(C(=O)CO)C[C@@H]3O[C@H]1C[C@H](N)[C@H](O)[C@H](C)O1 [DOXORUBICIN] | 10.4 | 9.4 |  | 
12 | CCOP(=O)(OCC)C(NNC(=O)CSc1nnc(-c2ccncc2)o1)c1ccc(F)cc1 (stereo unspecified) | 21.5 | 31.3 | 70.6 | 
13 | CCOP(=O)(OCC)C(NNC(=O)CSc1nnc(-c2ccncc2)o1)c1ccccc1 (stereo unspecified) | 23.5 | 22.5 | 99.1 | 
14 | CCOP(=O)(OCC)C(NNC(=O)CSc1nnc(-c2ccncc2)o1)c1ccc(Br)cc1 (stereo unspecified) | 31 | 17.3 | 64.4 | 

Source: ChEMBL document CHEMBL4364310, “Design, synthesis and biological evaluation of novel α-aminophosphonate oxadiazoles via optimized iron triflate catalyzed reaction as apoptotic inducers” (Eur J Med Chem, 2019)
